Data on 19 compounds can be found in US12084472B2 (Ardelyx, Inc., priority 2015, dated 2024).

Bounds are passed on as bounds.

The test deals with T1, human TGR5 (Homo sapiens, UniProt Q8TDU6).
T1 construct: expressed in transfected cells; host or cells: HEK293
T1 sequence (Q8TDU6 1-330): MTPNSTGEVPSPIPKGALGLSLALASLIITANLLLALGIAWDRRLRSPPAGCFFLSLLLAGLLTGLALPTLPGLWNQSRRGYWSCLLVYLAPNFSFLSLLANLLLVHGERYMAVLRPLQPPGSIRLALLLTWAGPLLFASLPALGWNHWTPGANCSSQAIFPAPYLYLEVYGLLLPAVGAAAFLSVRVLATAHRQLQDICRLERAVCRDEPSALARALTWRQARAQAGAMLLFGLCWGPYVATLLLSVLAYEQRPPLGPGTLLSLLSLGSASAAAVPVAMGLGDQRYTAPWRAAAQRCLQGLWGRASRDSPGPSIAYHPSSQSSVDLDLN
Put plainly: Cell-based TGR5 assay (cAMP generation, HTRF). As to conditions: HEK293 cells stably transfected with human TGR5; cAMP by HTRF; 30 minutes at 37° C.; read-out: pEC50 Human TGR5 (converted). The gist of the method:
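Read-out was HTRF detection of cAMP, converted to concentration via a standard curve and fitted (3-parameter logistic) for pEC50 and maximal response. Agonist stimulation used HEK293 cells stably transfected with human TGR5, incubated 30 min at 37° C in IBMX-containing buffer at 0.05 nM to 10 μM compound.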
For orientation: Time-resolved FRET reads energy transfer from a long-lived donor to a nearby acceptor.
Regarding `CN(CCCCSc1ccc(Cl)c(COC2(c3cnccc3-c3ccccc3OC3CC3)CC2)c1)C(=O)[C@@H](O)[C@@H](O)[C@H](O)[C@@H](O)CO` [Compound I-510, (2S,3S,4R,5S)-N-(4-{[4-chloro-3-({11-[4-(2-cyclopropoxyphenyl)pyridin-3-yl]cyclopropoxy}methyl)phenyl]sulfanyl}butyl)-2,3,4,5,6-pentahydroxy-N-methylhexanamide], the EC50 was below 100 nM.
For `CN(CCCSc1ccc(Cl)c(CNC2(c3cnccc3-c3ccccc3OC3CC3)CC2)c1)C(=O)[C@@H](O)[C@@H](O)[C@H](O)[C@@H](O)CO` [Compound I-511, (2S,3S,4R,5S)-N-[3-({4-chloro-3-[({1-[4-(2-cyclopropoxyphenyl)pyridin-3-yl]cyclopropyl}amino)methyl]phenyl}sulfanyl)propyl]-2,3,4,5,6-pentahydroxy-N-methylhexanamide], the EC50 was below 100 nM.
In the case of `O=C([C@@H](O)[C@@H](O)[C@H](O)[C@@H](O)CO)N(CCCCSc1ccc(Cl)c(COC2(c3cnccc3-c3ccccc3OC3CC3)CC2)c1)CCOCCO` [Compound I-512, (2S,3S,4R,5S)-N-(4-{[4-chloro-3-({1-[4-(2-cyclopropoxyphenyl)pyridin-3-yl]cyclopropoxy}methyl)phenyl]sulfanyl}butyl)-2,3,4,5,6-pentahydroxy-N-[2-(2-hydroxyethoxy)ethyl]hexanamide], the EC50 was below 100 nM.
For the compound `O=C([C@@H](O)[C@@H](O)[C@H](O)[C@@H](O)CO)N(CCCCO)CCCCSc1ccc(Cl)c(COC2(c3cnccc3-c3ccccc3OC3CC3)CC2)c1` [Compound I-513, (2S,3S,4R,5S)-N-(4-{[4-chloro-3-({1-[4-(2-cyclopropoxyphenyl)pyridin-3-yl]cyclopropoxy}methyl)phenyl]sulfanyl}butyl)-2,3,4,5,6-pentahydroxy-N-(4-hydroxybutyl)hexanamide], the EC50 is below 100 nM.
Regarding `O=C([C@@H](O)[C@@H](O)[C@H](O)[C@@H](O)CO)N(CCCCSc1ccc(Cl)c(COC2(c3cnccc3-c3ccccc3OC3CC3)CC2)c1)C1CCOCC1` [Compound I-514, (2S,3S,4R,5S)-N-(4-{[4-chloro-3-({1-[4-(2-cyclopropoxyphenyl)pyridin-3-yl]cyclopropoxy}methyl)phenyl]sulfanyl}butyl)-2,3,4,5,6-pentahydroxy-N-(oxan-4-yl)hexanamide], the EC50 is below 100 nM.
With `O=C1CCCN1CCCN(CCCCSc1ccc(Cl)c(COC2(c3cnccc3-c3ccccc3OC3CC3)CC2)c1)C(=O)[C@@H](O)[C@@H](O)[C@H](O)[C@@H](O)CO` [Compound I-515, (2S,3S,4R,5S)-N-(4-{[4-chloro-3-({1-[4-(2-cyclopropoxyphenyl)pyridin-3-yl]cyclopropoxy}methyl)phenyl]sulfanyl}butyl)-2,3,4,5,6-pentahydroxy-N-[3-(2-oxopyrrolidin-1-yl)propyl]hexanamide], the EC50 was below 100 nM.
Take `O=C([C@@H](O)[C@@H](O)[C@H](O)[C@@H](O)CO)N(CCCCSc1ccc(Cl)c(COC2(c3cnccc3-c3ccccc3OC3CC3)CC2)c1)CC1CCOCC1` [Compound I-516, (2S,3S,4R,5S)-N-(4-{[4-chloro-3-({1-[4-(2-cyclopropoxyphenyl)pyridin-3-yl]cyclopropoxy}methyl)phenyl]sulfanyl}butyl)-2,3,4,5,6-pentahydroxy-N-(oxan-4-ylmethyl)hexanamide]: the EC50 was below 100 nM.
Regarding `O=C1NCCN1CCN(CCCCSc1ccc(Cl)c(COC2(c3cnccc3-c3ccccc3OC3CC3)CC2)c1)C(=O)[C@@H](O)[C@@H](O)[C@H](O)[C@@H](O)CO` [Compound I-517, (2S,3S,4R,5S)-N-(4-{[4-chloro-3-({1-[4-(2-cyclopropoxyphenyl)pyridin-3-yl]cyclopropoxy}methyl)phenyl]sulfanyl}butyl)-2,3,4,5,6-pentahydroxy-N-[2-(2-oxoimidazolidin-1-yl)ethyl]hexanamide], the EC50 is below 100 nM.
Turning to `O=C([C@@H](O)[C@@H](O)[C@H](O)[C@@H](O)CO)N(CCCSc1ccc(Cl)c(COC2(c3cnccc3-c3ccccc3OC3CC3)CC2)c1)CCOCCO` [Compound I-518, (2S,3S,4R,5S)-N-(3-{[4-chloro-3-({1-[4-(2-cyclopropoxyphenyl)pyridin-3-yl]cyclopropoxy}methyl)phenyl]sulfanyl}propyl)-2,3,4,5,6-pentahydroxy-N-[2-(2-hydroxyethoxy)ethyl]hexanamide], the EC50 is below 100 nM.
Regarding `O=C([C@@H](O)[C@@H](O)[C@H](O)[C@@H](O)CO)N(CCCCO)CCCSc1ccc(Cl)c(COC2(c3cnccc3-c3ccccc3OC3CC3)CC2)c1` [Compound I-519, (2S,3S,4R,5S)-N-(3-{[4-chloro-3-({1-[4-(2-cyclopropoxyphenyl)pyridin-3-yl]cyclopropoxy}methyl)phenyl]sulfanyl}propyl)-2,3,4,5,6-pentahydroxy-N-(4-hydroxybutyl)hexanamide], the EC50 was 126 to 1000 nM.
Turning to `O=C1CCCN1CCCN(CCCSc1ccc(Cl)c(COC2(c3cnccc3-c3ccccc3OC3CC3)CC2)c1)C(=O)[C@@H](O)[C@@H](O)[C@H](O)[C@@H](O)CO` [Compound I-520, (2S,3S,4R,5S)-N-(3-{[4-chloro-3-({1-[4-(2-cyclopropoxyphenyl)pyridin-3-yl]cyclopropoxy}methyl)phenyl]sulfanyl}propyl)-2,3,4,5,6-pentahydroxy-N-[3-(2-oxopyrrolidin-1-yl)propyl]hexanamide], the EC50 was 126 to 1000 nM.
For `O=C([C@@H](O)[C@@H](O)[C@H](O)[C@@H](O)CO)N(CCCSc1ccc(Cl)c(COC2(c3cnccc3-c3ccccc3OC3CC3)CC2)c1)CCN1CCS(=O)(=O)CC1` [Compound I-521, (2S,3S,4R,5S)-N-(3-{[4-chloro-3-({1-[4-(2-cyclopropoxyphenyl)pyridin-3-yl]cyclopropoxy}methyl)phenyl]sulfanyl}propyl)-N-[2-(1,1-dioxo-1λ^6,4-thiomorpholin-4-yl)ethyl]-2,3,4,5,6-pentahydroxyhexanamide] the value was 126 to 1000 nM; for `O=C([C@@H](O)[C@@H](O)[C@H](O)[C@@H](O)CO)N(CCCSc1ccc(Cl)c(COC2(c3cnccc3-c3ccccc3OC3CC3)CC2)c1)CC1CCOCC1` [Compound I-522, (2S,3S,4R,5S)-N-(3-{[4-chloro-3-({1-[4-(2-cyclopropoxyphenyl)pyridin-3-yl]cyclopropoxy}methyl)phenyl]sulfanyl}propyl)-2,3,4,5,6-pentahydroxy-N-(oxan-4-ylmethyl)hexanamide], 126 to 1000 nM.
With `CS(=O)(=O)CCCN(CCCCSc1ccc(Cl)c(COC2(c3cnccc3-c3ccccc3OC3CC3)CC2)c1)C(=O)[C@@H](O)[C@@H](O)[C@H](O)[C@@H](O)CO` [Compound I-523, (2S,3S,4R,5S)-N-(4-{[4-chloro-3-({1-[4-(2-cyclopropoxyphenyl)pyridin-3-yl]cyclopropoxy}methyl)phenyl]sulfanyl}butyl)-2,3,4,5,6-pentahydroxy-N-(3-methanesulfonylpropyl)hexanamide], the EC50 is below 100 nM.
As to `O=C([C@@H](O)[C@@H](O)[C@H](O)[C@@H](O)CO)N(CCCCSc1ccc(Cl)c(COC2(c3cnccc3-c3ccccc3OC3CC3)CC2)c1)CCN1CCS(=O)(=O)CC1` [Compound I-524, (2S,3S,4R,5S)-N-(4-{[4-chloro-3-({1-[4-(2-cyclopropoxyphenyl)pyridin-3-yl]cyclopropoxy}methyl)phenyl]sulfanyl}butyl)-N-[2-(1,1-dioxo-1λ^6,4-thiomorpholin-4-yl)ethyl]-2,3,4,5,6-pentahydroxyhexanamide], the EC50 is 126 to 1000 nM.
`CS(=O)(=O)CCCN(CCCSc1ccc(Cl)c(CNC2(c3cnccc3-c3ccccc3OC3CC3)CC2)c1)C(=O)[C@@H](O)[C@@H](O)[C@H](O)[C@@H](O)CO` [Compound I-525, (2S,3S,4R,5S)-N-[3-({4-chloro-3-[({1-[4-(2-cyclopropoxyphenyl)pyridin-3-yl]cyclopropyl}amino)methyl]phenyl}sulfanyl)propyl]-2,3,4,5,6-pentahydroxy-N-(3-methanesulfonylpropyl) hexanamide]: the EC50 is 126 to 1000 nM.
Consider `O=C([C@@H](O)[C@@H](O)[C@H](O)[C@@H](O)CO)N(CCCSc1ccc(Cl)c(CNC2(c3cnccc3-c3ccccc3OC3CC3)CC2)c1)CCOCCO` [Compound I-526, (2S,3S,4R,5S)-N-[3-({4-chloro-3-[({1-[4-(2-cyclopropoxyphenyl)pyridin-3-yl]cyclopropyl}amino)methyl]phenyl}sulfanyl)propyl]-2,3,4,5,6-pentahydroxy-N-[2-(2-hydroxyethoxy)ethyl]hexanamide], for which the EC50 is 126 to 1000 nM.
Regarding `O=C([C@@H](O)[C@@H](O)[C@H](O)[C@@H](O)CO)N(CCCCO)CCCSc1ccc(Cl)c(CNC2(c3cnccc3-c3ccccc3OC3CC3)CC2)c1` [Compound I-527, (2S,3S,4R,5S)-N-[3-({4-chloro-3-[({1-[4-(2-cyclopropoxyphenyl)pyridin-3-yl]cyclopropyl}amino)methyl]phenyl}sulfanyl)propyl]-2,3,4,5,6-pentahydroxy-N-(4-hydroxybutyl)hexanamide], the EC50 was below 100 nM.
In the case of `O=C([C@@H](O)[C@@H](O)[C@H](O)[C@@H](O)CO)N(CCCSc1ccc(Cl)c(CNC2(c3cnccc3-c3ccccc3OC3CC3)CC2)c1)C1CCOCC1` [Compound I-528, (2S,3S,4R,5S)-N-[3-({4-chloro-3-[({1-[4-(2-cyclopropoxyphenyl)pyridin-3-yl]cyclopropyl}amino)methyl]phenyl}sulfanyl)propyl]-2,3,4,5,6-pentahydroxy-N-(oxan-4-yl)hexanamide] it was 126 to 1000 nM.
